Entries after “also recorded” stand apart in the source; their conditions may differ. Like-named read-outs stand apart in the source and are kept apart here.
Columns and labels:
[1] = test system: H157 human squamous lung cancer xenograft; assay type: in vivo; conditions: day 20 after beginning of treatments; ABTL0812 120 mg/kg oral; end-point tumor volume >1000 mm^3 or welfare
Description: Objective: Investigate survival rate for ABTL0812 alone and in combination with paclitaxel and carboplatin (P/C) with a Kaplan-Meier analysis in a human squamous NSCLC xenograft model Methods: Mice were injected with 5×10^6 H157 cells in one flank to induce tumor formation. […] The different conditions studied were vehicle, 120 mg/kg oral ABTL0812 daily, 15 mg/kg carboplatin+50 mg/kg paclitaxel by i.p. route and an additional group receiving the combination of these two regimens. […] Tumor volume was monitored 3 times a week.

[2] = test system: MiaPaca2 human pancreatic cancer xenograft; assay type: in vivo; conditions: ABTL0812 120 mg/kg oral; P/Gm 15 mg/kg and 60 mg/kg two times per week; 4 weeks
Description: Methods: Athymic female nude mice (n=9 per group) were injected via subcutaneous route with 0.1 ml of MiaPaca2 cells (5×10^6 cell/ml in serum free DMEM media in 1:1 with matrigel) in one flank. Tumor Volumes (TV) were measured as length×width^2×½ three times a week.

[3] = test system: A549 (human lung carcinoma) cell line with mutated KRAS; assay: Cell viability (MTT) of ABTL0812 in combination with paclitaxel, A549; assay type: cell-based; conditions: A549, 72 hours, 0.1% FBS, single agent
Description: (§1) Methods: A549 cells were incubated with increasing concentrations of ABTL0812 (3-300 μM), paclitaxel (0.003-1 μM), or a combination of both using subIC50 fixed concentration of ABTL0812 and 0.003-1 μM paclitaxel for 72 hours in DMEM with 0.1% FBS. H157, H1957 and HTB-812 cells were incubated with increasing concentrations of paclitaxel (0.001-10 μM) alone and in combination with subIC50 fixed concentration of ABTL0812 for 48 hours in DMEM with 0.1% FBS. Cell viability was evaluated in all cases by MTT assay and IC50's were calculated for paclitaxel and the combination. The concentrations of the combinations for the different cell lines were:
(§2) Finally, the Combination Index (CI), as described in the previous section, was calculated for the values of paclitaxel IC50.

[4] = test system: H157 cells; assay: Cell viability (MTT) of ABTL0812 in combination with paclitaxel, H157; assay type: cell-based, human; conditions: H157, 48 hours, 0.1% FBS, single agent
Description: as §1, §2

[5] = test system: MiaPaca2 human pancreatic cancer xenograft; assay: Human pancreatic xenograft (MiaPaca-2), gemcitabine and Nab-paclitaxel/gemcitabine; assay type: in vivo, Athymic Nude-Foxn1nu female mice; conditions: ABTL0812 120 mg/kg oral 5 times a week; gemcitabine 60 mg/kg, Nab-Paclitaxel 5 mg/kg i.p. 2 times a week (suboptimal chemotherapy dose)
Description: It is important to change the site of injection to avoid intestinal necrosis and keep Nab-Paclitaxel and gemcitabine injections as far as possible one from the other in mice abdomen. • Gemcitabine+ABTL0812 (n=10): treated orally with 120 mg/kg of ABTL0812 in 200 μl of distilled water+5% glycerol, 5 times a week and with 60 mg/kg of gemcitabine administered i.p in 100 μl of sterile water, 2 times a week. ABTL0812 was always administered before chemotherapy with the aim of reducing the stress derived from the i.p. injection, that is normally applied as the last administration. • Gemcitabine+Nab-Paclitaxel+ABTL0812 (n=8): treated orally with 120 mg/kg of ABTL0812 in 200 μl of distilled water+5% glycerol, 5 times a week, with 60 mg/kg of gemcitabine administered i.p. in 100 μl of sterile water, 2 times a week and with 5 mg/kg of Nab-Paclitaxel administered i.p. in 230 μl of 0.9% NaCl solution 2 times a week. As in the gemcitabine+Nab-Paclitaxel group, injections where administered in separated areas of the abdomen. […]
Treatment efficacy was assessed by measuring tumor volume three days a week. Additionally, total body weight was monitored three days a week to test the toxicity associated with the treatments in addition to visual examination of signs indicative of clinicopathological symptoms. […]

[6] = test system: H1957 cells; assay: Cell viability (MTT) of ABTL0812 in combination with paclitaxel, H1957; assay type: cell-based, human; conditions: H1957, 48 hours, 0.1% FBS, single agent
Description: as §1, §2

[7] = test system: A549 human lung adenocarcinoma xenograft; assay type: in vivo; conditions: ABTL0812 30 mg/kg/day oral 5 times a week; docetaxel 5 mg/kg i.p. once a week
Description: Methods: Mice were injected with 5×10^6 A549 cells in each flank to induce tumor formation. […] ABTL0812 was administered by the oral route at 30 mg/kg/day, 5 times a week. Docetaxel 5 mg/kg was administered intra-peritoneally once a week (Coxon et al. 2012). Tumor volume and body weight were monitorized 3 times a week.

SMILES: CCCCC/C=C\C/C=C\CCCCCCC(O)C(=O)O (stereo not shown) [ABTL0812, COOH—CHOH—(CH2)6—(CH═CH—CH2)2—(CH2)3—CH3]
- survival (Kaplan-Meier) [1]: 0%
- tumor volume [2]: positive effect within the first 15 days after treatment, showing similar tumor volume to vehicle group in the following days
- IC50 [3]: 49 µM
- IC50 [4]: 23 µM
- tumor volume [5]: better response in tumor volume evolution than Gem+Nab-Pac group during the first 20 days of treatment; also recorded: better response in tumor volume evolution than Gem group during the whole study
- IC50 [6]: 43 µM
- tumor volume [7]: significantly reduced tumor volume when compared to control animals

— patent US11260042B2, “Pharmaceutical combination for the treatment of cancer” (ABILITY PHARMACEUTICALS S.L., priority 2017, dated 2022)
